For this test, the target named is Human opiate κ receptors (Homo sapiens, UniProt P41145). The experiment in a line: κ opioid receptor functional assay, [35S]GTPγS binding (assay C). The settings on record: for activation at 1 µM: 0.5 h, read-out: % activation functional assay at 1 μM. The test is classed as biochemical.

pEC50: −log10 of the molar value. Where two headings read alike, the source gives them in different places.

Sequence of Human opiate κ receptors (P41145 whole entry): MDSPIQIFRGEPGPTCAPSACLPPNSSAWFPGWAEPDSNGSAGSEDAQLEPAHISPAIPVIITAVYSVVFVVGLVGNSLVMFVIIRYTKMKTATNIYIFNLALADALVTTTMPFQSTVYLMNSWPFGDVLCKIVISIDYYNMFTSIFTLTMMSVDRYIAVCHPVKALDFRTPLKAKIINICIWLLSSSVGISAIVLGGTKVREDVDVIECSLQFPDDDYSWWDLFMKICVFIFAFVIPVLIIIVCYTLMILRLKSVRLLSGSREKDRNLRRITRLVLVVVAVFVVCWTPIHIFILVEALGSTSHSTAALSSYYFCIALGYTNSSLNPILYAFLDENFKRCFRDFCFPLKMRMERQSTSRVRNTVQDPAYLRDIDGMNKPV

One may read the EC50 as the concentration giving half of the maximal effect. On to `O=C(Cc1ccc(Cl)c(Cl)c1)N1CCN(Cc2cccnc2)C2CCCC(N3CCC(O)C3)C21` (mixture of isomers) [AC, reference compound], for which the “activation (% of control) at 1 μM” value was 102 % of control. Moreover, for the setting “EC50 (nM) [35S]GTPγS binding”, the concentration for a half-maximal effect (EC50) is 77 nM.
Turning to `O=C(O)CC(=O)N1CCN(C(=O)Cc2ccc(Cl)c(Cl)c2)C2C(N3CCC(O)C3)CCCC21` (mixture of isomers) [T, reference compound], the “activation (% of control) at 1 μM” value is listed as 11 % of control and the “activation of the kappa opioid receptors at 1 μM” value is listed as “no or little activation”. Besides, the EC50 (EC50 (nM) [35S]GTPγS binding) was > 1000 nM.
In general, pEC50 refers to the EC50 on a negative log10 scale, so that one unit is a factor of ten. Consider `O=C(O)CC(=O)N1CCN(C(=O)Cc2ccc(Cl)c(Cl)c2)C2C(N3CCCC3)CCCC21` (racemic) [AD, reference compound], for which the “activation (% of control) at 1 μM” value is 22 % of control and the “activation of the kappa opioid receptors at 1 μM” value is “no or little activation”. Further, under “read-out: EC50 (nM) [35S]GTPγS binding”, the EC50 is > 1000 nM. Besides, the pEC50 (read-out: EC50 kappa opioid receptor activation) is < 6.00.
On to `O=C(O)CCC(=O)N1CCN(C(=O)Cc2ccc(Cl)c(Cl)c2)[C@H]2[C@H]1CCC[C@@H]2N1CCCC1` (racemic) [AE, reference compound], for which the “activation (% of control) at 1 μM” value is 43 % of control and the “activation of the kappa opioid receptors at 1 μM” value is on record as “no or little activation”. Moreover, under “EC50 (nM) [35S]GTPγS binding”, the concentration giving a half-maximal response (EC50) is > 1000 nM.
On to `COC(=O)N1CCN(C(=O)Cc2ccc(Cl)c(Cl)c2)[C@@H]2[C@@H](N3CCCC3)CCC[C@@H]21` (racemic) [Example 1], for which the “activation (% of control) at 1 μM” value is reported as 109 % of control and the activation at 1 µM was 109%.
Turning to `COC(=O)N1CCN(C(=O)Cc2cccc([N+](=O)[O-])c2)C2C(N3CCCC3)CCCC21` (racemic) [Example 3], the activation at 1 µM is 105%. Under “GTPγS EC50 (nM)”, this molecule returned an EC50 of 10 to 100 nM.
For `COC(=O)N1CCN(C(=O)Cc2ccc(C(F)(F)F)cc2)C2C(N3CCCC3)CCCC21` (racemic) [Example 5], in that order: 105% and < 10 nM.
On to `COC(=O)N1CCN(C(=O)Cc2ccc3c(c2)CCCC3)C2C(N3CCCC3)CCCC21` (racemic) [Example 6], for which the activation at 1 µM is 97%. Besides, the EC50 (GTPγS EC50 (nM)) fell in the range of 10 to 100 nM.
The corresponding values for `COC(=O)N1CCN(C(=O)Cc2cc(Cl)c3c(c2)OCCO3)C2C(N3CCCC3)CCCC21` (racemic) [Example 7] are 101% and 10 to 100 nM.
The corresponding values for `COC(=O)N1CCN(C(=O)Cc2ccc(Cl)s2)C2C(N3CCCC3)CCCC21` (racemic) [Example 8] are 97% and 10 to 100 nM.
The corresponding values for `COC(=O)N1CCN(C(=O)Cc2ccc3ccccc3c2)C2C(N3CCCC3)CCCC21` (racemic) [Example 10] are 100% and 10 to 100 nM.
Turning to `COC(=O)N1CCN(C(=O)Cc2ccc(Cl)c(Cl)c2)C2C(N3CC=CCC3)CCCC21` (racemic) [Example 12], the activation at 1 µM turned out to be 96%. Under “GTPγS EC50 (nM)”, this molecule gave a 50% effective concentration (EC50) of 10 to 100 nM.
For `COC(=O)N1CCN(C(=O)Cc2ccc(Cl)c(Cl)c2)C2C1CCCC2N(C)C(C)C` (racemic) [Example 13], in that order: 98% and < 10 nM.
For `COC(=O)N1CCN(C(=O)Cc2ccc(C(F)(F)F)cc2)C2C1CCCC2N(C)C(C)C` (racemic) [Example 14], in that order: 104% and < 10 nM.
For `O=C(Cc1ccc(Cl)c(Cl)c1)N1CCN(Cc2ccccc2)[C@H]2CCC[C@H](N3CCCC3)[C@H]21` (racemic) [Example 15], the “activation (% of control) at 1 μM” value is recorded as 89 % of control and the activation at 1 µM turned out to be 89%. This molecule yielded an EC50 (EC50 (nM) [35S]GTPγS binding) of 7.39 nM. The EC50 (GTPγS EC50 (nM)) is < 10 nM.
Take `O=C(Cc1ccc(Cl)c(Cl)c1)N1CCN(C(=O)OCc2ccccc2)[C@H]2CCC[C@H](N3CCCC3)[C@H]21` (racemic) [Example 16]: the activation at 1 µM was determined as 102%. For the same molecule, the concentration for a half-maximal effect (EC50) (GTPγS EC50 (nM)) was < 10 nM.
For `COC(=O)N1CCN(C(=O)Cc2ccc(F)c(F)c2)C2C(N3CCCC3)CCCC21` (racemic) [Example 18], in that order: 112% and < 10 nM.
Take `COC(=O)N1CCN(C(=O)Cc2ccc(Cl)c(F)c2)C2C(N3CCCC3)CCCC21` (racemic) [Example 19]: the activation at 1 µM came out at 100%. In addition, under “GTPγS EC50 (nM)”, the EC50 was < 10 nM.
As to `COC(=O)N1CCN(C(=O)Cc2ccc(F)c(Cl)c2)C2C(N3CCCC3)CCCC21` (racemic) [Example 20], the activation at 1 µM was 96%. Further, where the note is “GTPγS EC50 (nM)”, the half-maximal effective concentration (EC50) is < 10 nM.
With `COC(=O)N1CCN(C(=O)Cc2ccc(F)c(OC)c2)C2C(N3CCCC3)CCCC21` (racemic) [Example 21], the activation at 1 µM turned out to be 103%. The molecule also had an EC50 (GTPγS EC50 (nM)) of 10 to 100 nM.
For `COC(=O)N1CCN(C(=O)Cc2ccc(OC)c(F)c2)C2C(N3CCCC3)CCCC21` (racemic) [Example 22], in that order: 78% and 100 to 1000 nM.
Take `CS(=O)(=O)N1CCN(C(=O)Cc2ccc(Cl)c(Cl)c2)C2C(N3CCCC3)CCCC21` (racemic) [Example 23]: the activation at 1 µM came to 91%. In addition, under “GTPγS EC50 (nM)”, the 50% effective concentration (EC50) is < 10 nM.
The corresponding values for `CC(C)(C)OC(=O)N1CCN(C(=O)Cc2ccc(Cl)c(Cl)c2)[C@@H]2[C@@H](N3CCCC3)CCC[C@@H]21` (racemic) [Example 24] are 105% and < 10 nM.
For the molecule `CCC(=O)N1CCN(C(=O)Cc2ccc(Cl)c(Cl)c2)C2C(N3CCCC3)CCCC21` (racemic) [Example 25], the “activation (% of control) at 1 μM” value is 102 % of control and the activation at 1 µM is 102%. Moreover, the EC50 (EC50 (nM) [35S]GTPγS binding) is 2.55 nM. Besides, where the note is “GTPγS EC50 (nM)”, the concentration for a half-maximal effect (EC50) is < 10 nM.
Turning to `CC(C)C(=O)N1CCN(C(=O)Cc2ccc(Cl)c(Cl)c2)C2C(N3CCCC3)CCCC21` (racemic) [Example 26], the activation at 1 µM was determined as 119%. For the same molecule, the 50% effective concentration (EC50) (GTPγS EC50 (nM)) is < 10 nM.
The corresponding values for `O=C(C1CCC1)N1CCN(C(=O)Cc2ccc(Cl)c(Cl)c2)C2C(N3CCCC3)CCCC21` (racemic) [Example 27] are 103% and < 10 nM.
For `O=C(C1CC1)N1CCN(C(=O)Cc2ccc(Cl)c(Cl)c2)C2C(N3CCCC3)CCCC21` (racemic) [Example 28], in that order: 111% and < 10 nM.
As to `O=C(c1ccco1)N1CCN(C(=O)Cc2ccc(Cl)c(Cl)c2)C2C(N3CCCC3)CCCC21` (racemic) [Example 29], the activation at 1 µM amounted to 96%.
The same measure, in the same setting: the same measure for `O=C(c1cccs1)N1CCN(C(=O)Cc2ccc(Cl)c(Cl)c2)C2C(N3CCCC3)CCCC21` (racemic) [Example 30]: 110%.
Take `O=C(c1ccccc1)N1CCN(C(=O)Cc2ccc(Cl)c(Cl)c2)C2C(N3CCCC3)CCCC21` (racemic) [Example 31]: the “activation (% of control) at 1 μM” value is on record as 93 % of control and the activation at 1 µM was 93%.
As for `O=C(c1ccccn1)N1CCN(C(=O)Cc2ccc(Cl)c(Cl)c2)C2C(N3CCCC3)CCCC21` (racemic) [Example 32], the activation at 1 µM was 88%.
For `CN(C)C(=O)N1CCN(C(=O)Cc2ccc(Cl)c(Cl)c2)C2C(N3CCCC3)CCCC21` (racemic) [Example 34], the activation at 1 µM stood at 107%. Further, the EC50 (GTPγS EC50 (nM)) lay in the range of 10 to 100 nM.
For `CN(C)S(=O)(=O)N1CCN(C(=O)Cc2ccc(Cl)c(Cl)c2)C2C(N3CCCC3)CCCC21` (racemic) [Example 35], in that order: 108% and < 10 nM.
In the case of `COC(=O)CC(=O)N1CCN(C(=O)Cc2ccc(Cl)c(Cl)c2)C2C(N3CCCC3)CCCC21` (racemic) [Example 36], the “activation (% of control) at 1 μM” value is recorded as 93 % of control and the activation at 1 µM is 93%. The same molecule showed an EC50 (EC50 (nM) [35S]GTPγS binding) of 9.74 nM. Besides, the EC50 (GTPγS EC50 (nM)) was < 10 nM.
Turning to `O=C(O)CC(=O)N1CCN(C(=O)Cc2ccc(Cl)c(Cl)c2)C2C(N3CCCC3)CCCC21` (racemic) [Example 37], the “activation (% of control) at 1 μM” value is 87 % of control and the activation at 1 µM was 87%. This molecule showed a pEC50 (EC50 kappa opioid receptor activation) of 7.66. For the setting “GTPγS EC50 (nM)”, the concentration for a half-maximal effect (EC50) fell in the range of 10 to 100 nM.
In the case of `O=C(N1CCCC1)N1CCN(C(=O)Cc2ccc(Cl)c(Cl)c2)C2C(N3CCCC3)CCCC21` (racemic) [Example 38], the activation at 1 µM was determined as 109%. Moreover, where the note is “GTPγS EC50 (nM)”, the EC50 fell in the range of 10 to 100 nM.
Turning to `CCNC(=O)N1CCN(C(=O)Cc2ccc(Cl)c(Cl)c2)C2C(N3CCCC3)CCCC21` (racemic) [Example 40], the activation at 1 µM was determined as 96%. Besides, the EC50 (GTPγS EC50 (nM)) is < 10 nM.
For `CC(C)NC(=O)N1CCN(C(=O)Cc2ccc(Cl)c(Cl)c2)C2C(N3CCCC3)CCCC21` (racemic) [Example 42], in that order: 96% and < 10 nM.
The corresponding values for `O=C(Nc1ccccc1)N1CCN(C(=O)Cc2ccc(Cl)c(Cl)c2)C2C(N3CCCC3)CCCC21` (racemic) [Example 43] are 107% and < 10 nM.
For `CCN(C)C1CCCC2C1N(C(=O)Cc1ccc(Cl)c(Cl)c1)CCN2C(=O)OC` (racemic) [Example 45], the activation at 1 µM was found to be 91%. Also, for the setting “GTPγS EC50 (nM)”, the EC50 was < 10 nM.
Turning to `COC(=O)N1CCN(C(=O)Cc2cccc(Cl)c2)C2C(N3CCCC3)CCCC21` (racemic) [Example 46], the activation at 1 µM was found to be 96%. For the same molecule, under “GTPγS EC50 (nM)”, the EC50 was < 10 nM.
Consider `COC(=O)N1CCN(C(=O)Cc2ccc(Cl)cc2)C2C(N3CCCC3)CCCC21` (racemic) [Example 47], for which the activation at 1 µM amounted to 101%. Besides, the concentration giving a half-maximal response (EC50) (GTPγS EC50 (nM)) was < 10 nM.
In the case of `O=C(Cc1ccc(Cl)c(Cl)c1)N1CCN(Cc2cccnc2)C2CCCC(N3CCCC3)C21` (racemic) [Example 48], the “activation (% of control) at 1 μM” value is 100 % of control and the activation at 1 µM is 100%. Under “EC50 (nM) [35S]GTPγS binding”, the concentration giving a half-maximal response (EC50) was 4.99 nM. In addition, the 50% effective concentration (EC50) (GTPγS EC50 (nM)) is < 10 nM.
For the molecule `O=C(Cc1ccc(Cl)c(Cl)c1)N1CCN(Cc2cnc[nH]2)C2CCCC(N3CCCC3)C21` (racemic) [Example 49], the “activation (% of control) at 1 μM” value is 112 % of control and the activation at 1 µM is 112%. The same molecule displayed an EC50 (EC50 (nM) [35S]GTPγS binding) of 6.65 nM. The 50% effective concentration (EC50) (GTPγS EC50 (nM)) is < 10 nM.
